{"source": "paper PMC6199744", "about": "“Development of Chemical Proteomics for the Folateome and Analysis of the Kinetoplastid Folateome” (ACS Infectious Diseases, 2018)", "tested_on": "L. major lysate proteins", "assay": "Multitargeted bead mixture chemoproteomics, single concentration competition, proteome-wide", "type": "binding", "conditions": "for fold change: vehicle control = 1", "data": [{"smiles": "NCCOCCOCC(=O)Nc1nc2ncc(CNc3ccc(C(=O)NC(CCC(=O)O)C(=O)O)cc3)nc2c(=O)[nH]1", "note": "(stereo not drawn) [compound 6]", "values": [{"measurement": "fold change", "setting": "protein LMJF.28.0710 HYPOTHETICAL PROTEIN, CONSERVED (SNARE associated Golgi protein, putative)", "value": 1}, {"measurement": "fold change vs vehicle control", "setting": "protein LMJF.28.0930 HY[…], CONSERVED", "value": 1.01}, {"measurement": "fold change vs vehicle control", "setting": "protein LMJF.28.0960 40S RIBOSOMAL PROTEIN S14", "value": 1.09}, {"measurement": "fold change vs vehicle control", "setting": "protein LMJF.28.1530 ATP DEPENDENT DEAD-BOX HELICASE, PUTATIVE", "value": 0.91}, {"measurement": "fold change relative to vehicle control", "setting": "protein LMJF.28.1730, PROTEASOME REGULATORY NON-ATP-ASE SUBUNIT 2, PUTATIVE", "value": 1.1}, {"measurement": "fold change relative to vehicle control", "setting": "protein LMJF.28.2310, EUKARYOTIC TRANSLATION INITIATION FACTOR, PUTATIVE", "value": 1.1}, {"measurement": "fold change vs vehicle control", "setting": "protein LMJF.28.2430 VACUOLAR ATP SYNTHASE SUBUNIT B, PUTATIVE", "value": 0.97}, {"measurement": "fold change relative to vehicle control", "setting": "protein LMJF.28.2770, HEAT-SHOCK PROTEIN HSP70, PUTATIVE", "value": 1.35}, {"measurement": "fold change", "setting": "protein LMJF.28.2910 GLUTAMATE DEHYDROGENASE, PUTATIVE", "value": 0.9}, {"measurement": "fold change vs vehicle control", "setting": "protein LMJF.29.0120 PROTEASOME REGULATORY NON-ATPASE SUBUNIT, PUTATIVE", "value": 1}, {"measurement": "fold change", "setting": "protein LMJF.29.0620 ATP-BINDING CASSETTE PROTEIN SUBFAMILY A, MEMBER 10, PUTATIVE", "value": 0.81}, {"measurement": "fold change vs vehicle control", "setting": "protein LMJF.29.0760 […] BI[…], PUTATIVE,HEAT SHOCK PROTEIN 90, PUTATIVE", "value": 1.05}, {"measurement": "fold change relative to vehicle control", "setting": "protein LMJF.29.0850, HIGH MOBILITY GROUP PROTEIN HOMOLOG TDP-1, PUTATIVE", "value": 1.17}, {"measurement": "fold change vs vehicle control", "setting": "protein LMJF.29.0940 HY[…], CONSERVED", "value": 1.19}, {"measurement": "fold change vs vehicle control", "setting": "protein LMJF.29.1160 TRYPAREDOXIN", "value": 0.8}, {"measurement": "fold change vs vehicle control", "setting": "protein LMJF.29.1240 HYPOTHETICAL PROTEIN, UNKNOWN FUNCTION", "value": 0.95}, {"measurement": "fold change vs vehicle control", "setting": "protein LMJF.29.1270 100 kDa heat shock protein (Hsp100)", "value": 1.02}, {"measurement": "fold change vs vehicle control", "setting": "protein LMJF.29.1310 CARNITINE/CHOLINE ACETYLTRANSFERASE, PUTATIVE", "value": 1.07}, {"measurement": "fold change relative to vehicle control", "setting": "protein LMJF.29.1760, PAR[…] PROTEIN 1D, PUTATIVE", "value": 1.02}, {"measurement": "fold change vs vehicle control", "setting": "protein LMJF.29.1780 DIPHTHAMIDE SYNTHESIS PROTEIN, PUTATIVE", "value": 0.96}, {"measurement": "fold change", "setting": "protein LMJF.29.2200 GTP-BINDING PROTEIN, PUTATIVE (dynamin-1-like protein)", "value": 1.03}, {"measurement": "fold change", "setting": "protein LMJF.29.2310 ENOYL-COA HYDRATASE/ISOMERASE-LIKE PROTEIN", "value": 0.99}, {"measurement": "fold change vs vehicle control", "setting": "protein LMJF.29.2360 ASPARTYL AMINOPEPTIDASE, PUTATIVE,METALLO-PEPTIDASE, CLAN MH, FAMILY M20", "value": 0.95}, {"measurement": "fold change", "setting": "protein LMJF.29.2860 40S RIBOSOMAL PROTEIN S19-LIKE PROTEIN", "value": 1.12}, {"measurement": "fold change", "setting": "protein LMJF.30.0580 HY[…], CONSERVED (AMP-binding enzyme, putative)", "value": 1.03}, {"measurement": "fold change", "setting": "protein LMJF.30.0850 SURFACE PROTEIN AMASTIN, PUTATIVE", "value": 0.98}, {"measurement": "fold change vs vehicle control", "setting": "protein LMJF.30.1250 PYRIDOXAL KINASE, PUTATIVE", "value": 1.24}, {"measurement": "fold change vs vehicle control", "setting": "protein LMJF.30.2580 RETICULON DOMAIN PROTEIN, 22 KDA POTENTIALLY AGGRAVATING PROTEIN (PAPLE22)", "value": 0.95}, {"measurement": "fold change relative to vehicle control", "setting": "protein LMJF.30.3090, HY[…], CONSERVED (RNA-binding protein 42, putative)", "value": 1.16}, {"measurement": "fold change vs vehicle control", "setting": "protein LMJF.30.3240 GLUTAMYL-TRNA SYNTHETASE, PUTATIVE", "value": 1.11}, {"measurement": "fold change", "setting": "protein LMJF.30.3380 PAS-DOMAIN CONTAINING PHOSPHOGLYCERATE KINASE, PUTATIVE", "value": 0.84}, {"measurement": "fold change", "setting": "protein LMJF.30.3430 HY[…], CONSERVED (protein mkt1, putative)", "value": 1.04}, {"measurement": "fold change", "setting": "protein LMJF.30.3520 S-ADENOSYLMETHIONINE SYNTHETASE", "value": 0.86}, {"measurement": "fold change", "setting": "protein LMJF.30.3570 ZINC FINGER-DOMAIN PROTEIN, PUTATIVE", "value": 0.86}, {"measurement": "fold change relative to vehicle control", "setting": "protein LMJF.31.0080, HYPOTHETICAL PROTEIN, CONSERVED", "value": 1.2}, {"measurement": "fold change vs vehicle control", "setting": "protein LMJF.31.0340 AMINO ACID PERMEASE, PUTATIVE", "value": 1.17}, {"measurement": "fold change", "setting": "protein LMJF.31.1130 N-ACYL-L-AMINO ACID AMIDOHYDROLASE, PUTATIVE", "value": 0.98}, {"measurement": "fold change vs vehicle control", "setting": "protein LMJF.31.1640 THIOLASE PROTEIN-LIKE PROTEIN", "value": 1.09}, {"measurement": "fold change relative to vehicle control", "setting": "protein LMJF.31.2150, PROSTAGLANDIN F2-ALPHA SYNTHASE/D-ARABINOSE DEHYDROGENASE", "value": 1.02}, {"measurement": "fold change vs vehicle control", "setting": "protein LMJF.31.2250 3,2-TRANS-ENOYL-COA ISOMERASE, MIT[…], PUTATIVE", "value": 0.97}, {"measurement": "fold change vs vehicle control", "setting": "protein LMJF.32.0750 RNA BINDING PROTEIN, PUTATIVE", "value": 1.19}, {"measurement": "fold change vs vehicle control", "setting": "protein LMJF.32.1060 DYNEIN, PUTATIVE", "value": 0.96}, {"measurement": "fold change relative to vehicle control", "setting": "protein LMJF.32.1820, IRON […], PUTATIVE", "value": 1.08}, {"measurement": "fold change relative to vehicle control", "setting": "protein LMJF.32.2320, C-14 STEROL REDUCTASE, PUTATIVE", "value": 1.02}, {"measurement": "fold change relative to vehicle control", "setting": "protein LMJF.32.2950, NUCLEOSIDE DIPHOSPHATE KINASE B", "value": 0.94}, {"measurement": "fold change vs vehicle control", "setting": "protein LMJF.32.3870 MYOSIN XXI", "value": 0.97}, {"measurement": "fold change relative to vehicle control", "setting": "protein LMJF.33.0240, THIOL-DEPENDENT REDUCTASE 1", "value": 1.18}, {"measurement": "fold change", "setting": "protein LMJF.33.0280 HYPOTHETICAL PROTEIN, CONSERVED", "value": 0.92}, {"measurement": "fold change relative to vehicle control", "setting": "protein LMJF.33.0890, HY[…], CONSERVED", "value": 1.01}, {"measurement": "fold change vs vehicle control", "setting": "protein LMJF.33.1070 HY[…], UNKNOWN FUNCTION", "value": 1.07}, {"measurement": "fold change vs vehicle control", "setting": "protein LMJF.33.1330 CYSTEINE CONJUGATE BETA-LYASE, AMINOTRANSFERASE- LIKE PROTEIN", "value": 1.04}, {"measurement": "fold change", "setting": "protein LMJF.33.1590 HYPOTHETICAL PROTEIN, CONSERVED (3-ketoacyl-CoA reductase, putative)", "value": 0.97}, {"measurement": "fold change relative to vehicle control", "setting": "protein LMJF.33.1860, ATP-BINDING CASSETTE PROTEIN SUBFAMILY D, MEMBER 3, PUTATIVE", "value": 1.15}, {"measurement": "fold change relative to vehicle control", "setting": "protein LMJF.33.2340, SUCCINYL-COA:3-KETOACID-COENZYME A TRANSFERASE, MIT[…], PUTATIVE", "value": 1.18}, {"measurement": "fold change relative to vehicle control", "setting": "protein LMJF.33.2440, HY[…], CONSERVED", "value": 1.19}, {"measurement": "fold change relative to vehicle control", "setting": "protein LMJF.33.2540, CARBOXYPEPTIDASE, PUTATIVE,METALLO-PEPTIDASE, CLAN MA(E), FAMILY M32", "value": 1.79}, {"measurement": "fold change", "setting": "protein LMJF.33.3150 40S RIBOSOMAL PROTEIN S13, PUTATIVE", "value": 0.88}, {"measurement": "fold change relative to vehicle control", "setting": "protein LMJF.34.0140, MALATE DEHYDROGENASE", "value": 1.47}, {"measurement": "fold change vs vehicle control", "setting": "protein LMJF.34.0440 RIBOSOMAL PROTEIN S25", "value": 1.1}, {"measurement": "fold change relative to vehicle control", "setting": "protein LMJF.34.2580, HY[…], CONSERVED (ALBA-domain protein 3)", "value": 1.11}, {"measurement": "fold change relative to vehicle control", "setting": "protein LMJF.34.3250, PUTATIVE PYRUVATE/INDOLE-PYRUVATE CARBOXYLASE, PUTATIVE", "value": 0.98}, {"measurement": "fold change", "setting": "protein LMJF.34.4370 20S […] 7 SUBUNIT, (PUTATIVE)", "value": 0.96}, {"measurement": "fold change vs vehicle control", "setting": "protein LMJF.34.4620 HY[…], CONSERVED", "value": 1.01}, {"measurement": "fold change", "setting": "protein LMJF.35.0070 PROHIBITIN, PUTATIVE", "value": 1.04}, {"measurement": "fold change vs vehicle control", "setting": "protein LMJF.35.0360 ENOYL-COA HYDRATASE/ISOMERASE FAMILY PROTEIN, CONSERVED", "value": 1.24}, {"measurement": "fold change", "setting": "protein LMJF.35.0370 ATP-DEPENDENT DEAD-BOX RNA HELICASE, PUTATIVE", "value": 1.08}]}]}
